Experimental findings from ChEMBL document CHEMBL4265952, “One-pot, multi-component synthesis and structure-activity relationships of peptoid-based histone deacetylase (HDAC) inhibitors targeting malaria parasites” (Eur J Med Chem, 2018) are described below.

SMILES strings stand for the structures.

For series [1], the system named is Plasmodium falciparum. The series is classed as functional, organism-based. The settings on record: 3D7.
The subject of series [2] is Plasmodium falciparum. The series is classed as functional, organism-based. The settings on record: Dd2.
Series [3] has as its system NFF. The format is ADME, cell-based. The settings on record: Homo sapiens, 72 h.
The subject of the next series is HEK293. The series can be described thus: Cytotoxicity against HEK293 cells after 48 hrs by resazurin dye based assay. The series is classed as ADME, cell-based. The settings on record: Homo sapiens, HEK293, 48 h. (In general: Alamar Blue is a resazurin reagent that responds to reducing activity.)
A further series addresses Histone deacetylase 1 (Homo sapiens, UniProt Q13547). The series can be described thus: Inhibition of recombinant full length human C-terminal His/FLAG tagged HDAC1 expressed in baculovirus infected Sf9 insect cells using ZMAL as substrate measured after 90 mins by fluorescence assay.
The nature of series [4]: Cytotoxicity against human HepG2A16 cells expressing GFP-fused CD81 after 48 hrs by bioluminescence assay. Particulars: HepG2A16, 48 h.
The next series has as its system Plasmodium berghei. The series can be described thus: Antiplasmodial activity against exo-erythrocytic stage of GFP-Luc-fused Plasmodium berghei ANKA infected in human HepG2 cells after 48 hrs by bioluminescence assay. The settings on record: HepG2, 48 h.
The nature of series [5]: Selectivity index, ratio of IC50 for human HepG2A16 cells to IC50 for exo-erythrocytic stage of GFP-Luc-fused Plasmodium berghei ANKA infected in human HepG2 cells.
In series [6] the test system is Plasmodium falciparum. The series can be described thus: Antiplasmodial activity against Plasmodium falciparum.
The target of series [7] is T1, Protein deacetylase HDAC6 (Homo sapiens, UniProt Q9UBN7).
T1 sequence (Q9UBN7 whole entry): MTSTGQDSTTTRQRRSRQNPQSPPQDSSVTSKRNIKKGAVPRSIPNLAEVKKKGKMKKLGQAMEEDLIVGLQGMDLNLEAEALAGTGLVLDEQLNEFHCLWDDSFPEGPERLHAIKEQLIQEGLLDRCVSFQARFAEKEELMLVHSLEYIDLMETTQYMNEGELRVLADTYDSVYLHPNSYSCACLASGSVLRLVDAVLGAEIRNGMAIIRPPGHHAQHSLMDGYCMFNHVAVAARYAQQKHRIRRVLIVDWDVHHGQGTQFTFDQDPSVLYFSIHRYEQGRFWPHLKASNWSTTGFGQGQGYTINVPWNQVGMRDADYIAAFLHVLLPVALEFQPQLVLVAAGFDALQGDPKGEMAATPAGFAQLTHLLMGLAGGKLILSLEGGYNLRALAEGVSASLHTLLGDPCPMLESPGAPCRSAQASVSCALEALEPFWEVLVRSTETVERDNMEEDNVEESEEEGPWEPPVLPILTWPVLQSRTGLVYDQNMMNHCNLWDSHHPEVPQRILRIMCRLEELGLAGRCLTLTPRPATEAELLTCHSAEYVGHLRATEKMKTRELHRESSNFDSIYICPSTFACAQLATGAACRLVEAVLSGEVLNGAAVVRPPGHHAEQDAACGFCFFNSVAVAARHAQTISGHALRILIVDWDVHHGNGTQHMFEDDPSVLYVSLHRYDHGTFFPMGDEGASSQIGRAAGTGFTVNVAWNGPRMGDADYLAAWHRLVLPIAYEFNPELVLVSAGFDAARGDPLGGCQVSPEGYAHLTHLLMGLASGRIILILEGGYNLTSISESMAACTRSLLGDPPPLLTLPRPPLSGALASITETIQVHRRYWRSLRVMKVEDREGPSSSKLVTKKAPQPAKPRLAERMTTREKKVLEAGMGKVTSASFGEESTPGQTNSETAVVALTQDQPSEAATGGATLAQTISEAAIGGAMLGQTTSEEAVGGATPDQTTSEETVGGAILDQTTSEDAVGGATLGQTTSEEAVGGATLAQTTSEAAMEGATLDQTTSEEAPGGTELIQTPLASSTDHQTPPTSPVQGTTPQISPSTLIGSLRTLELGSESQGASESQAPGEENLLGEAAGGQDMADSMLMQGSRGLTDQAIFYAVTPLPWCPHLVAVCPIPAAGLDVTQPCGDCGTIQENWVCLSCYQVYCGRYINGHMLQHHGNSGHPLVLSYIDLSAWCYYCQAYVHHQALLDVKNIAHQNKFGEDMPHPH
The series can be described thus: Inhibition of recombinant full length human N-terminal GST-tagged HDAC6 expressed in baculovirus infected Sf9 insect cells using ZMAL as substrate measured after 90 mins by fluorescence assay.

For series [8], the system named is Plasmodium falciparum. The series can be described thus: Gametocytocidal activity against transgenic GFP-fused Plasmodium falciparum NF54 late stage gametocytes at 40 uM after 72 hrs by Mitotracker Red CMH2XRos staining based imaging method relative to control. The format is functional.
The test system of series [9] is NFF. The series can be described thus: cells. Particulars: Homo sapiens.
Description: Cytotoxicity against human NFF cells
Series [10] can be described thus: in vitro. Particulars: human.
Description: Selectivity index, ratio of IC50 for human NFF cells to IC50 for drug-sensitive asexual ring stage Plasmodium falciparum 3D7 infected in human erythrocytes
A short description of series [11]: in vitro. Particulars: human. The source holds these as a separate data set.
Description: Selectivity index, ratio of IC50 for human NFF cells to IC50 for multidrug-resistant asexual ring stage Plasmodium falciparum Dd2 infected in human erythrocytes
The subject of series [12] is Plasmodium falciparum. The series can be described thus: microbe, parasite or virus in culture. Particulars: 3D7, 3 h.
Description: Antiplasmodial activity against drug-sensitive asexual ring stage Plasmodium falciparum 3D7 infected in human erythrocytes by [3H]-hypoxanthine incorporation assay
Series [13] has as its system Plasmodium falciparum. The series can be described thus: microbe, parasite or virus in culture. Particulars: Dd2, 3 h.
Description: Antiplasmodial activity against multidrug-resistant asexual ring stage Plasmodium falciparum Dd2 infected in human erythrocytes by [3H]-hypoxanthine incorporation assay
In series [14] the test system is Plasmodium falciparum. The series can be described thus: Gametocytocidal activity against synchronized Plasmodium falciparum NF54 mature stage 5 gametocytes after 48 hrs by ATP bioluminescence assay. The format is functional, organism-based. Particulars: NF54, 48 h.
Series [15] concerns Plasmodium falciparum. The series can be described thus: Gametocytocidal activity against transgenic GFP-fused Plasmodium falciparum NF54 early stage gametocytes after 72 hrs by Mitotracker Red CMH2XRos staining based imaging method. The series is classed as functional, organism-based. Particulars: NF54, 72 h.
Series [16] relates to Plasmodium falciparum. The series can be described thus: Gametocytocidal activity against transgenic GFP-fused Plasmodium falciparum NF54 late stage gametocytes after 72 hrs by Mitotracker Red CMH2XRos staining based imaging method. The series is classed as functional, organism-based. The settings on record: NF54, 72 h.

Chain of Histone deacetylase 1 (Q13547 whole entry, the tested form may be a part): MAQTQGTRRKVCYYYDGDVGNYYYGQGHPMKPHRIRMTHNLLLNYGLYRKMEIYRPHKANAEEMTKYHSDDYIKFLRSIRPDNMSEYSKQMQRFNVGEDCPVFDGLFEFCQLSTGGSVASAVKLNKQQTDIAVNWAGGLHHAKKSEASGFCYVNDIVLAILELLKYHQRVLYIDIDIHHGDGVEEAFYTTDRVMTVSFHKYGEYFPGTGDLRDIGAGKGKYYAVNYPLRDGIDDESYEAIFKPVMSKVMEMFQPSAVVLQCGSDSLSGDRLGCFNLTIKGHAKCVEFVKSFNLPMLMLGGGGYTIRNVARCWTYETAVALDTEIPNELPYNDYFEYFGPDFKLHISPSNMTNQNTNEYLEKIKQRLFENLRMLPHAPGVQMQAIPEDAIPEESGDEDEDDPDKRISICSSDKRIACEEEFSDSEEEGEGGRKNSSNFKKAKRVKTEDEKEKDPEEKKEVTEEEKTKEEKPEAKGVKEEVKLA

Take `Cc1[nH]c2ccccc2c1CCNCc1ccc(/C=C/C(=O)NO)cc1` [PANOBINOSTAT]: the IC50 (in general, the concentration that inhibits the measured activity by half) lay within 10 to 30 nM in the series on Plasmodium falciparum [1], 10 to 30 nM in the series on Plasmodium falciparum [2], 70 to 180 nM with NFF [3] and 70 to 180 nM with HEK293.
Turning to `Cc1ccc(C(=O)N(CC(=O)NC2CCCCC2)Cc2ccc(C(=O)NO)cc2)cc1C`, on Histone deacetylase 1, the IC50 is 304 nM.
Regarding `O=C(/C=C/c1cccc(S(=O)(=O)Nc2ccccc2)c1)NO` [BELINOSTAT], the IC50 with Plasmodium falciparum [1] was 60 to 130 nM; in the series with Plasmodium falciparum [2], 60 to 130 nM; in the series on NFF [3], 1420 to 2370 nM; in the series on HEK293, 1420 to 2370 nM.
Turning to `O=C1C(O)=C([C@H]2CC[C@H](c3ccc(Cl)cc3)CC2)C(=O)c2ccccc21` [ATOVAQUONE], the IC50 in series [4] was greater than 500 nM; with Plasmodium berghei it was 0.014 nM. The selectivity ratio in series [5] is greater than 35000.
Turning to `CC(/C=C/C(=O)NO)=C\[C@@H](C)C(=O)c1ccc(N(C)C)cc1` [TRICHOSTATIN], the IC50 in the series with Plasmodium falciparum [6] was 8 to 11 nM.
Consider `CC(C)c1ccc(C(=O)N(CC(=O)NC2CCCCC2)Cc2ccc(C(=O)NO)cc2)cc1`, for which the values for the IC50 (at Histone deacetylase 1; in [7]) were 86 nM and 64 nM, respectively.
In the case of `O=C(CN(Cc1ccc(C(=O)NO)cc1)C(=O)c1cccc2ccccc12)NC1CCCCC1`, on Histone deacetylase 1, the IC50 stood at 552 nM.
For `CCCCNC(=O)CN(Cc1ccc(C(=O)NO)cc1)C(=O)c1ccc(N(C)C)cc1`, the values for the IC50 (on Histone deacetylase 1; in series [7]) were 40 nM and 35 nM, respectively.
As to `Cc1ccc(C(=O)N(CC(=O)NC(C)(C)C)Cc2ccc(C(=O)NO)cc2)cc1C`, the IC50 came to 428 nM at Histone deacetylase 1 and 57 nM in [7]. Further, the Activity in the series on Plasmodium falciparum [8] is 92%.
In the case of `Cc1ccc(NC(=O)CN(Cc2ccc(C(=O)NO)cc2)C(=O)c2cccc3ccccc23)cc1`, the IC50 was greater than 10000 nM in the series on NFF [9], 39 nM in the series with Plasmodium falciparum [12] and 33 nM with Plasmodium falciparum [13]. Also, the selectivity ratio in the series “in vitro [10]” and in “in vitro [11]” was 256 to 303 throughout.
In the series on Plasmodium falciparum [14], `CC[C@H](C)[C@H](NC(=O)[C@H]([C@@H](C)CC)N(C)C(C)=O)C(=O)N[C@H](C(=O)N[C@@H](CC(C)C)C(=O)[C@@]1(C)CO1)[C@@H](C)O` [EPOXOMYCIN] displayed an IC50 of 7 nM.
With `Cc1ccc(NC(=O)CN(Cc2ccc(C(=O)NO)cc2)C(=O)c2cc(C)cc(C)c2)cc1`, the IC50 in [4] is 21400 nM; in the series with Plasmodium falciparum [15] it was 7600 nM; with Plasmodium falciparum [16], 7280 nM; in the series with Plasmodium falciparum [14] it was 10100 nM; with Plasmodium berghei it was 5550 nM; in the series on NFF [9] it was greater than 10000 nM. The same compound yielded an IC50 in the series on Plasmodium falciparum [13] of 27 nM.
Turning to `Cc1ccc(NC(=O)CN(Cc2ccc(C(=O)NO)cc2)C(=O)c2ccc(N(C)C)cc2)cc1`, the IC50 at Histone deacetylase 1 was determined as 80 nM.
Regarding `COc1ccc2nc3cc(Cl)ccc3c(Nc3cc(CN4CCCC4)c(O)c(CN4CCCC4)c3)c2n1` [PYRONARIDINE], the values for the IC50 in the series on Plasmodium falciparum [15] and with Plasmodium falciparum [16] were 29 nM and 1710 nM, respectively.
`CN(C)c1ccc2nc3ccc(N(C)C)cc3[s+]c2c1` [METHYLENE BLUE ANHYDROUS] yielded an IC50 in the series on Plasmodium falciparum [14] of 480 nM.
